Assay results published in ChEMBL document CHEMBL3046240, “A useful new insecticide bioassay using first-instar larvae of a net-spinning caddisfly, Cheumatopsyche brevilineata (Trichoptera: Hydropsychidae)” (J Pestic Sci, 2009).
Converted amounts (≈) assume the structure as drawn.

Columns and labels:
Daphnia magna = experiment: Insecticidal activity against Daphnia magna after 48 hr; assay type: functional, organism-based
Cheumatopsyche = experiment: Insecticidal activity against first-instar larvae of Cheumatopsyche brevilineata after 48 hr; assay type: functional, organism-based
[1] = Octanol-water partition coefficient, log KOW of the compound
Daphnia pulex = experiment: Insecticidal activity against Daphnia pulex after 48 hr; assay type: functional, organism-based

Compound	EC50 (Daphnia magna) [ng/mL]	EC50 (Cheumatopsyche) [ng/mL]	logP [1]	LC50 (Daphnia magna; Daphnia magna, 48 h) [ng/mL]	EC50 (Daphnia pulex) [ng/mL]	log KOW [1]
CNC(=O)Oc1cc(C)cc(C)c1	30 (≈ 0.167 µM)	58.9 (≈ 0.329 µM)	2.3	–	–	–
CCN(Cc1ccc(Cl)nc1)/C(=C/[N+](=O)[O-])NC	> 100000	45 (≈ 0.166 µM)	–	–	–	–
C/C(=N\C#N)N(C)Cc1ccc(Cl)nc1	50000 (≈ 225 µM)	3.35 (≈ 0.015 µM)	0.8	–	–	–
CCOC(=O)CCN(SN(C)C(=O)Oc1cccc2c1OC(C)(C)C2)C(C)C [BENFURACARB]	9.9 (≈ 0.0241 µM)	6.66 (≈ 0.0162 µM)	4.22	–	–	–
CN(C)C(CSS(=O)(=O)c1ccccc1)CSS(=O)(=O)c1ccccc1 [BENSULTAP]	–	148 (≈ 0.343 µM)	2.28	200 (≈ 0.463 µM)	–	–
CC(C)N1C(=O)N(c2ccccc2)CS/C1=N\C(C)(C)C [BUPROFEZIN]	> 420	181 (≈ 0.593 µM)	4.3	–	–	–
CNC(=O)Oc1cccc2ccccc12 [CARBARIL]	5.6 (≈ 0.0278 µM)	21.4 (≈ 0.106 µM)	1.85	–	–	–
CCCCN(CCCC)SN(C)C(=O)Oc1cccc2c1OC(C)(C)C2 [CARBOSULFAN]	–	1.49 (≈ 0.00392 µM)	5.4	–	1.03 (≈ 0.00271 µM)	–
CN(C)C(CSC(N)=O)CSC(N)=O.Cl [CARTAP HYDROCHLORIDE]	65	3.7	–	–	–	–
CN/C(=N\[N+](=O)[O-])NCc1cnc(Cl)s1 [CLOTHIANIDINE]	> 119000	4.44 (≈ 0.0178 µM)	–	–	–	–
COP(=O)(OC)OC=C(Cl)Cl [DICHLORVOS]	0.2 (≈ 0.000905 µM)	1.17 (≈ 0.00529 µM)	1.9	–	–	–
CCOP(=S)(OCC)Oc1cc(C)nc(C(C)C)n1 [DIMPYLATE]	0.87 (≈ 0.00286 µM)	1.77 (≈ 0.00582 µM)	–	–	–	–
CN/C(=N/CC1CCOC1)N[N+](=O)[O-] (stereo unspecified) [DINOTEFURAN]	> 968300	10.4 (≈ 0.0514 µM)	–	–	–	-0.644
CCOc1ccc(C(C)(C)COCc2cccc(Oc3ccccc3)c2)cc1 [ETOFENPROX]	0.57 (≈ 0.00151 µM)	0.116 (≈ 0.000308 µM)	–	–	–	–
COP(=S)(OC)Oc1ccc([N+](=O)[O-])c(C)c1 [FENITROTHION]	11 (≈ 0.0397 µM)	7.78 (≈ 0.0281 µM)	3.43	–	–	–
CCC(C)c1ccccc1OC(=O)NC (stereo unspecified) [FENOBUCARB]	–	9.48 (≈ 0.0457 µM)	2.79	–	10.3 (≈ 0.0497 µM)	–
COP(=S)(OC)Oc1ccc(SC)c(C)c1 [FENTHION]	5.2 (≈ 0.0187 µM)	2.14 (≈ 0.00769 µM)	–	–	–	–
N#Cc1nn(-c2c(Cl)cc(C(F)(F)F)cc2Cl)c(N)c1[S+]([O-])C(F)(F)F (stereo unspecified) [FIPRONIL]	190 (≈ 0.435 µM)	0.153 (≈ 0.00035 µM)	–	–	–	–
O=[N+]([O-])/N=C1\NCCN1Cc1ccc(Cl)nc1 [IMIDACLOPRID]	85200 (≈ 333 µM)	4.22 (≈ 0.0165 µM)	–	–	–	–
CCOC(=O)CC(SP(=S)(OC)OC)C(=O)OCC (stereo unspecified) [MALATHION]	1 (≈ 0.00303 µM)	1.81 (≈ 0.00548 µM)	2.75	–	–	–
CNC(=O)ON=C(C)SC [METHOMYL]	8.8 (≈ 0.0542 µM)	68.1 (≈ 0.42 µM)	0.093	–	–	–
CC1(C)C(C=C(Cl)Cl)C1C(=O)OCc1cccc(Oc2ccccc2)c1 (stereo unspecified) [PERMETHRIN]	0.6 (≈ 0.00153 µM)	0.205 (≈ 0.000524 µM)	–	–	–	6.1
CCOC(=O)C(SP(=S)(OC)OC)c1ccccc1 (stereo unspecified) [PHENTHOATE]	0.34 (≈ 0.00106 µM)	0.88 (≈ 0.00275 µM)	–	–	–	–
CC1=NNC(=O)N(/N=C/c2cccnc2)C1 [PYMETROZINE]	87000 (≈ 400 µM)	112000 (≈ 516 µM)	–	–	–	–
CCOc1ccc([Si](C)(C)CCCc2ccc(F)c(Oc3ccccc3)c2)cc1 [SILAFLUOFEN]	1.2 (≈ 0.00294 µM)	0.6 (≈ 0.00147 µM)	–	–	–	–
CCc1ccc(C(=O)NN(C(=O)c2cc(C)cc(C)c2)C(C)(C)C)cc1 [TEBUFENOZIDE]	3800 (≈ 10.8 µM)	> 830	–	–	–	–
N#C/N=C1\SCCN1Cc1ccc(Cl)nc1 [THIACLOPRID]	22520 (≈ 89.1 µM)	5.27 (≈ 0.0209 µM)	–	–	–	–
CN(C)C1CSSSC1.O=C(O)C(=O)O [THIOCYCLAM HYDROGEN OXALATE]	–	5.76	-0.07	–	2010	–
CS/C(C)=N\OC(=O)N(C)SN(C)C(=O)O/N=C(\C)SC [THIODICARB]	27 (≈ 0.0762 µM)	145 (≈ 0.409 µM)	1.62	–	–	–
COP(=O)(OC)C(O)C(Cl)(Cl)Cl (stereo unspecified) [TRICHLORFON]	0.36 (≈ 0.0014 µM)	2.02 (≈ 0.00785 µM)	–	–	–	–
